Reference: patent US20210198317A1, “REACTIVE OXYGEN PRODUCTION INHIBITOR AND/OR SCAVENGING PROMOTER” (NATIONAL UNIVERSITY CORPORATION OKAYAMA UNIVERSITY, priority 2018, published 2021)
“Also recorded” adds a separate entry of the source.

What was measured:
[1] = Calorimetry (MicroCal iTC200) metal ion-binding property, trivalent iron ions; settings: FIG. 4A, 5A, 6A
Description: (§1) In this Example, in order to investigate the binding properties of HRG to metal ions serving as essential factors in Fenton' s reaction, an experiment was performed using calorimetry. MicroCal iTC200 was used as a calorimeter, and binding properties between various metals (iron, copper, cobalt, zinc, and nickel) and samples were measured in accordance with the specifications.

[2] = OxiSelect ORAC Activity Assay Kit: antioxidant activity against peroxy radicals (AAPH); type: biochemical; settings: for antioxidant action against peroxy radicals (fluorescence intensity): every 5 minutes for 60 minutes; for Antioxidant Activity Against Peroxy Radicals (NetAUC): AUCsample minus AUCblank, 60 minutes
Description: In this Example, HRG was investigated for its antioxidant action against peroxy radicals. As a positive control, Trolox was used. Antioxidant activity against peroxy radicals was measured with OxiSelect™ ORAC Activity Assay Kit (Cell Biolabs, San Diego, Calif.) in accordance with the specifications. The fluorescent probe solution was added to a sample solution, the mixture was incubated at 37° C. for 30 minutes, and added with 2,2′-azobis-(2-methylpropionamidine) dihydrochloride (AAPH), followed by immediate measurement of fluorescence intensity (Ex/Em=485 nm/538 nm). In the presence of peroxy radicals, the fluorescence of the fluorescent probe is quenched, and the quenching is inhibited when antioxidant activity is present. A. For each of 0 μM to 6.25 μM Trolox sample solutions, their fluorescence intensities (Ex/Em=485 nm/538 nm) were measured every 5 minutes for 60 minutes in accordance with the above-mentioned measurement method. […] B. For each of 0 μM to 1 μM HRG sample solutions, their fluorescence intensity (Ex/Em=485 nm/538 nm) were measured every 5 minutes for 60 minutes in accordance with the above-mentioned measurement method. […] The difference between the area under the curve of the fluorescence intensity of Trolox or HRG (AUCsample) and the area under the curve of the blank (AUCblank) was measured every 5 minutes for 60 minutes after the initiation of reaction to calculate NetAUC. […] In this Example, the histidine-rich peptide was investigated for its antioxidant action against peroxy radicals in the same manner as in Example 4. A. The fluorescent probe solution was added to each solution of HRG (1 μM), the histidine-rich peptide (6 μM), or the control peptide (6 μM), and antioxidant activity against peroxy radicals was measured by the same technique as that of Example 4. […] B. The fluorescent probe solution was added to histidine-rich peptide solutions (0.1 μM to 10 μM), and antioxidant activity against peroxy radicals was measured by the same technique as that of Example 4. […] The difference between the area under the curve of the fluorescence intensity of the histidine-rich peptide or HRG (AUCsample) and the area under the curve of the blank (AUCblank) was measured every 5 minutes for 60 minutes after the initiation of reaction to calculate NetAUC.

[3] = Calorimetry (MicroCal iTC200) metal ion-binding property, divalent metal ions; settings: for binding to divalent metal ions: iron, copper, cobalt, zinc, nickel, FIG. 4A-6B
Description: as §1

[4] = OxiSelect HORAC Activity Assay Kit: antioxidant activity against hydroxy radicals (cell-free, Fenton's reagent); type: biochemical; settings: for antioxidant action against hydroxy radicals (fluorescence intensity): every 5 minutes for 60 minutes; for Antioxidant Activity Against Hydroxy Radicals (NetAUC): AUCsample minus AUCblank, 60 minutes
Description: Antioxidant activity against hydroxy radicals was measured with OxiSelect™ HORAC Activity Assay Kit (Cell Biolabs, San Diego, Calif.) in accordance with the specifications. A fluorescent probe solution was added to a sample solution, the mixture was incubated at 37° C. for 30 minutes, and a hydroxy radical initiator (H2O2) and Fenton's reagent were added, followed by the measurement of a fluorescence intensity (Ex/Em=485 nm/538 nm) based on the oxidation of the fluorescent probe by hydroxy radicals via hydrogen atom transfer (HAT). In the presence of hydroxy radicals, the fluorescence of the fluorescent probe is quenched, and the quenching is inhibited when antioxidant activity is present. As the sample solution, 0.01 μM to 1 μM HRG solutions, or 50 μM to 100 μM GA solutions were used. A. For each of the 50 μM to 100 μM gallic acid (GA) sample solutions, their fluorescence intensities (Ex/Em=485 nm/538 nm) were measured every 5 minutes for 60 minutes in accordance with the above-mentioned measurement method. The fluorescence intensities of GA and a blank were plotted on the vertical axis, and the measurement times were plotted on the horizontal axis. […] B. For each of the 0 μM to 1 μM HRG sample solutions, their fluorescence intensities (Ex/Em=485 nm/538 nm) were measured every 5 minutes for 60 minutes in accordance with the above-mentioned measurement method. The fluorescence intensities of HRG and a blank were plotted on the vertical axis, and the measurement times were plotted on the horizontal axis. […] The difference between the area under the curve of the fluorescence intensity of GA or HRG (AUCsample) and the area under the curve of the blank (AUCblank) was measured every 5 minutes for 60 minutes after the initiation of reaction, and NetAUC was calculated. […] In this Example, the histidine-rich peptide (SEQ ID NO: 10) was investigated for its antioxidant action against hydroxy radicals by the same technique as that of Example 1. A control peptide (SEQ ID NO: 11) was similarly investigated. A. The fluorescent probe solution was added to each solution of HRG (1 μM), the histidine-rich peptide (6 μM), or the control peptide (6 μM), and antioxidant activity against hydroxy radicals was measured by the same technique as that of Example 1. […] B. The fluorescent probe solution was added to histidine-rich peptide solutions (0.1 μM to 10 μM), and the resultant mixtures were measured for their antioxidant activity against hydroxy radicals by the same technique as that of Example 1. […] The difference between the area under the curve of the fluorescence intensity of the histidine-rich peptide or HRG (AUCsample) and the area under the curve of the blank (AUCblank) was measured every 5 minutes for 60 minutes after the initiation of reaction to calculate NetAUC.

[5] = OxiSelect Catalase Activity Assay Kit: catalase-like activity; type: biochemical; settings: 0.01 μM to 1 μM; FIG. 10A-B
Description: In this Reference Example, whether HRG had catalase-like activity was investigated through use of OxiSelect™ Catalase Activity Assay Kit (Cell Biolabs, San Diego, Calif.). HRG used was plasma-derived HRG generated by the method described in Example 1. A prescribed amount of hydrogen peroxide was allowed to react with 0.01 μM to 1 μM HRG. Next, the remaining hydrogen peroxide was incubated in the presence of HRP with a probe (colorimetric measurement: DHBS+AAP; and fluorescence measurement: ADHP (10-Acetyl-3,7-dihydroxyphenoxazine)) at 37° C. for 30 minutes, and the resulting fluorescence intensity (Ex/Em=544 nm/590 nm) was measured. As a control, measurement was similarly performed for catalase.

[6] = DetectX Superoxide Dismutase (SOD) Colorimetric Activity Kit: antioxidant action against superoxide (xanthine/xanthine oxidase); type: biochemical; settings: 0.01 μM to 1 μM; room temperature 20 minutes; absorbance 450 nm; FIG. 9A-B
Description: In this Reference Example, the antioxidant action of HRG against superoxide was investigated through use of DetectX Superoxide Dismutase (SOD) Colorimetric Activity Kit (Arbor Assays, Ann Arbor, Mich.). HRG used was plasma-derived HRG generated by the method described in Example 1. Superoxide anion (O^2−) is generated by a xanthine/xanthine oxidase (XOD) system, and is detected through use of a chromogen solution. Superoxide dismutase (SOD) is a metalloenzyme that catalyzes the conversion of O^2− into an oxygen molecule and hydrogen peroxide. The presence of SOD decreases the O^2− concentration to decrease a dye signal.
In accordance with the specifications, xanthine oxidase, and a substrate were added to 0.01 μM to 1 μM HRG solutions, and the mixtures were incubated at room temperature for 20 minutes. After that, the reaction solutions were each measured for its absorbance at a wavelength of 450 nm. As a control, measurement was similarly performed for SOD.

[7] = overall conclusion from the results

GAAPAGAAPA (Standard peptide) [control peptide, reference compound]
binding to trivalent iron ions [1]: did not bind to any of the various metal ions
antioxidant activity against peroxy radicals ([2]; 6 μM, FIG. 8A): no antioxidant action
binding to divalent metal ions [3]: did not bind to any of the various metal ions
antioxidant activity against hydroxy radicals ([4]; 6 μM, FIG. 3A): no antioxidant action

Cc1c(C)c2c(c(C)c1O)CCC(C)(C(=O)O)O2 (stereo not drawn) [Trolox, reference compound]
antioxidant action against peroxy radicals (fluorescence intensity) ([2]; 0 μM to 6.25 μM sample solutions, FIG. 7A): antioxidant action against peroxy radicals was recognized in a manner dependent on the concentration of Trolox

O=C(O)c1cc(O)c(O)c(O)c1 [GA, gallic acid, reference compound]
antioxidant action against hydroxy radicals (fluorescence intensity) ([4]; 50 μM to 100 μM sample solutions, FIG. 2A): antioxidant action against hydroxy radicals was recognized in a manner dependent on the concentration of GA

GHHPHGHHPH [histidine-rich peptide]
binding to trivalent iron ions [1]: does not bind to trivalent iron ions
antioxidant activity against peroxy radicals ([2]; 0.1 μM to 10 μM, FIG. 8B): antioxidant activity in a slightly concentration-dependent manner
antioxidant activity against peroxy radicals ([2]; 6 μM, FIG. 8A): an antioxidant action, which was slightly weaker
Antioxidant Activity Against Peroxy Radicals (NetAUC) ([2]; FIG. 8C): weak as compared to HRG
binding to divalent metal ions [3]: bind to divalent metal ions (iron, copper, cobalt, zinc, and nickel)
antioxidant activity against hydroxy radicals ([4]; 0.1 μM to 10 μM, FIG. 3B): potent antioxidant activity in a concentration-dependent manner
antioxidant activity against hydroxy radicals ([4]; 6 μM, FIG. 3A): potent antioxidant actions
Antioxidant Activity Against Hydroxy Radicals (NetAUC) ([4]; FIG. 3C): potent antioxidant action against hydroxy radicals
antioxidant activity against hydroxy radicals [4, 7]: potent antioxidant activity against hydroxy radicals

B1: HRG: Histidine-rich glycoprotein, plasma protein of 507 amino acids (SEQ ID NO: 1), generated from human plasma as a starting material (protein, listed as Homo sapiens)
chain: VSPTDCSAVEPEAEKALDLINKRRRDGYLFQLLRIADAHLDRVENTTVYYLVLDVQESDCSVLSRKYWNDCEPPDSRRPSEIVIGQCKVIATRHSHESQDLRVIDFNCTTSSVSSALANTKDSPVLIDFFEDTERYRKQANKALEKYKEENDDFASFRVDRIERVARVRGGEGTGYFVDFSVRNCPRHHFPRHPNVFGFCRADLFYDVEALDLESPKNLVINCEVFDPQEHENINGVPPHLGHPFHWGGHERSSTTKPPFKPHGSRDHHHPHKPHEHGPPPPPDERDHSHGPPLPQGPPPLLPMSCSSCQHATFGTNGAQRHSHNNNSSDLHPHKHHSHEQHPHGHHPHAHHPHEHDTHRQHPHGHHPHGHHPHGHHPHGHHPHGHHPHCHDFQDYGPCDPPPHNQGHCCHGHGPPPGHLRRRGPGKGPRPFHCRQIGSVYRLPPLRKGEVLPLPEANFPSFPLPHHKHPLKPDNQPFPQSVSESCPGKFKSGFPQVSMFFTHTFPK
catalase-like activity [5]: no catalase-like activity
binding to trivalent iron ions [1]: did not bind to trivalent iron ions
antioxidant action against peroxy radicals (fluorescence intensity) ([2]; 0 μM to 1 μM sample solutions, FIG. 7B): antioxidant action against peroxy radicals was recognized in a manner dependent on the concentration of HRG
antioxidant activity against peroxy radicals ([2]; 1 μM, FIG. 8A): potent antioxidant action
Antioxidant Activity Against Peroxy Radicals (NetAUC) ([2]; FIG. 8C): had an antioxidant action against peroxy radicals
Antioxidant Activity Against Peroxy Radicals (NetAUC) ([2]; various concentrations, FIG. 7C): has an antioxidant action against peroxy radicals
antioxidant activity against peroxy radicals [2, 7]: showed an antioxidant activity against peroxy radicals
number of divalent metal ions bound per molecule ([3]; FIG. 4A): a large number of divalent metal ions bind to one molecule of HRG
binding to divalent metal ions [3]: bound to divalent metal ions (iron, copper, cobalt, zinc, and nickel)
scavenging activity / antioxidant action against superoxide [6]: no scavenging activity against superoxide; also recorded: hardly showed an antioxidant action against superoxide; also recorded: no antioxidant action against superoxide
antioxidant action against hydroxy radicals (fluorescence intensity) ([4]; 0 μM to 1 μM sample solutions, FIG. 2B): antioxidant action against hydroxy radicals was recognized in a manner dependent on the concentration of HRG
antioxidant activity against hydroxy radicals ([4]; 1 μM, FIG. 3A): potent antioxidant actions
Antioxidant Activity Against Hydroxy Radicals (NetAUC) ([4]; FIG. 3C): potent antioxidant action against hydroxy radicals
Antioxidant Activity Against Hydroxy Radicals (NetAUC) ([4]; various concentrations, FIG. 2C): potent antioxidant action against hydroxy radicals
antioxidant activity against hydroxy radicals [4, 7]: potent antioxidant activity against hydroxy radicals
